Laboratory results published in ChEMBL document CHEMBL5113527, “First-in-Class Hydrazide-Based HDAC6 Selective Inhibitor with Potent Oral Anti-Inflammatory Activity by Attenuating NLRP3 Inflammasome Activation” (J Med Chem, 2022).
The source made the active and inactive calls. No cut-off for these calls is given here.

How the values were obtained:
Homo sapiens = organism: Homo sapiens; assay: Selectivity index, ratio of IC50 for recombinant HDAC1(unknown origin) to IC50 for full length recombinant human HDAC6
Histone deacetylase 1 = Histone deacetylase 1 (Homo sapiens, UniProt Q13547); assay: Inhibition of recombinant HDAC1 (unknown origin) using Boc-Lys(acetyl)-AMC as substrate preincubated for 1 hr followed by substrate addition and measured after 2 hrs by fluorescence based microplate reader analysis
Histone deacetylase 1, sequence (Q13547 whole entry): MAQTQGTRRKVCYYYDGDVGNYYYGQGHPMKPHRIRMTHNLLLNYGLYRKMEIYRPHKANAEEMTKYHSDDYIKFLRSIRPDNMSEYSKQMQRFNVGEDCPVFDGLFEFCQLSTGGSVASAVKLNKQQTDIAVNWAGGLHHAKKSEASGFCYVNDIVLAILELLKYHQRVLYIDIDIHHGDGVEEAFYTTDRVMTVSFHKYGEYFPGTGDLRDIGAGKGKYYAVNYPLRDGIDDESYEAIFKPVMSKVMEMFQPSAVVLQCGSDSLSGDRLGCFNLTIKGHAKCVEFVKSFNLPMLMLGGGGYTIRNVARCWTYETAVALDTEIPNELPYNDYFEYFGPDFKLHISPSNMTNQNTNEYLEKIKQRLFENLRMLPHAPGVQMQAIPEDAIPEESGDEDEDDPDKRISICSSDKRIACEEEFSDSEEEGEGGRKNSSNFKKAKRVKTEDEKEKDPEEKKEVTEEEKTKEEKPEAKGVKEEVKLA

Histone deacetylase 2 [1] = target: T1, Histone deacetylase 2 (Homo sapiens, UniProt Q92769); assay: Inhibition of recombinant HDAC2 (unknown origin) using Boc-Lys(acetyl)-AMC as substrate preincubated for 1 hr followed by substrate addition and measured after 2 hrs by fluorescence based microplate reader analysis
T1 sequence (Q92769 whole entry): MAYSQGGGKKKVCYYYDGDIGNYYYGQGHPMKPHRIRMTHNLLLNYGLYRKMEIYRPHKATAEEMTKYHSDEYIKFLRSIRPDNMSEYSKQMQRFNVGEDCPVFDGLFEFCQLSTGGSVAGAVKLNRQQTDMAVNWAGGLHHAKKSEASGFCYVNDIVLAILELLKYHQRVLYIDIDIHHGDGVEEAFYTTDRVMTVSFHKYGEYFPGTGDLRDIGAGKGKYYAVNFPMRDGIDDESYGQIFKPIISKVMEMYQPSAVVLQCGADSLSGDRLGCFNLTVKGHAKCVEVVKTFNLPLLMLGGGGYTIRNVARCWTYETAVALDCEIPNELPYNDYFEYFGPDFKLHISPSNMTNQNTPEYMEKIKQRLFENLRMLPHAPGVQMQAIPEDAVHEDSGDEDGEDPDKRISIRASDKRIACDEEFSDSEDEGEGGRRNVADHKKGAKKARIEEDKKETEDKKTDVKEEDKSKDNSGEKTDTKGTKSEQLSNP

Histone deacetylase 3 [2] = target: T2, Histone deacetylase 3 (Homo sapiens, UniProt O15379); assay: Inhibition of recombinant HDAC3 (unknown origin) using Boc-Lys(acetyl)-AMC as substrate preincubated for 1 hr followed by substrate addition and measured after 2 hrs by fluorescence based microplate reader analysis
T2 sequence (O15379 whole entry): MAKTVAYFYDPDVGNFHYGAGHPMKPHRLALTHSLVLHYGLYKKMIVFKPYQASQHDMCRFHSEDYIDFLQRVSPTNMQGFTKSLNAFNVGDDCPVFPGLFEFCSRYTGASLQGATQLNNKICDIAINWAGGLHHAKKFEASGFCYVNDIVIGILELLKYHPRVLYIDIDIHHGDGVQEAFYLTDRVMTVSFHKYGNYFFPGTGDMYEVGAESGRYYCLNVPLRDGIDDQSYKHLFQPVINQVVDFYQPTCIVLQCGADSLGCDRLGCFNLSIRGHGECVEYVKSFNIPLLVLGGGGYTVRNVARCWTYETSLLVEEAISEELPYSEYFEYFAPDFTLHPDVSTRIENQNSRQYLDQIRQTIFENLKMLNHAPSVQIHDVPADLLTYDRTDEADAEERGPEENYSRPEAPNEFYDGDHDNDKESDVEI

[3] = target: T3, Protein deacetylase HDAC6 (Homo sapiens, UniProt Q9UBN7); assay: Inhibition of recombinant HDAC6 (unknown origin) using Boc-Lys(acetyl)-AMC as substrate preincubated for 1 hr followed by substrate addition and measured after 2 hrs by fluorescence based microplate reader analysis
T3 sequence (Q9UBN7 whole entry): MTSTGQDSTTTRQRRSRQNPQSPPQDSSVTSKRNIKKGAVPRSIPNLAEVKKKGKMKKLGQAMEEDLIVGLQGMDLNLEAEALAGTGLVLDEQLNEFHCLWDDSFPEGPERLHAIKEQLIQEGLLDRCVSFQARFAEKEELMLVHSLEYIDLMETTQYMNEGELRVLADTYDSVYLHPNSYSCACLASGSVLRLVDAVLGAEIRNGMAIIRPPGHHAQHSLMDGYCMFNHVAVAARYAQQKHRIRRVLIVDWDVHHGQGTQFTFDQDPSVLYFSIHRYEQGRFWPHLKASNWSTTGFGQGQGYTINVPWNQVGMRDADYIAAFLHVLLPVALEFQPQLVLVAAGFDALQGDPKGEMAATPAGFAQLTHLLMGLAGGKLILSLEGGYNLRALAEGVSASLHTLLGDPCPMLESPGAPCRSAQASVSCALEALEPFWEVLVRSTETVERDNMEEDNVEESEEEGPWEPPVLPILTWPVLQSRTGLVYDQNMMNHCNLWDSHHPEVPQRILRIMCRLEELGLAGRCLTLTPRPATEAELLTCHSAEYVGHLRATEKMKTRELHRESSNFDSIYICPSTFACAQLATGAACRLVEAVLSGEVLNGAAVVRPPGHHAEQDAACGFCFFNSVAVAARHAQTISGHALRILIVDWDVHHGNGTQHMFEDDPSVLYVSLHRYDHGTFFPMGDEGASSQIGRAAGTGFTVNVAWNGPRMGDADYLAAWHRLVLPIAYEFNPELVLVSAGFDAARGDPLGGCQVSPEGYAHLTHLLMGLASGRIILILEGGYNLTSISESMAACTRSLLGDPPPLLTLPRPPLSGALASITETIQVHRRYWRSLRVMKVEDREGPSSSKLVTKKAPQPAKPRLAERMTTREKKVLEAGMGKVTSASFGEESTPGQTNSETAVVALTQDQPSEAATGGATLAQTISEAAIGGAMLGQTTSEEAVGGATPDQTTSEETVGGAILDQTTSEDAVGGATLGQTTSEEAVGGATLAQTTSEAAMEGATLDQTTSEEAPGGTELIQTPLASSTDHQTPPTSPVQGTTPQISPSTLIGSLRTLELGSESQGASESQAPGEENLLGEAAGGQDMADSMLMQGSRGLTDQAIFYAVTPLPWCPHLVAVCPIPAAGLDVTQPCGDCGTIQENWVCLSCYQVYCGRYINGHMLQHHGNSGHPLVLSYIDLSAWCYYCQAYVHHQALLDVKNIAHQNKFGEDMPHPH

Histone deacetylase 2 [4] = target: T1, Histone deacetylase 2; assay: Inhibition of HDAC2 (unknown origin)
Histone deacetylase 3 [5] = target: T2, Histone deacetylase 3; assay: Inhibition of HDAC3 (unknown origin)
J774.A1 [6] = assay: Inhibition of NLRP3 inflammasome activation in mouse J774.A1 cells assessed as cleavage of pro-caspase 1 to p20 measured at 5 to 20 microM after […] by Western blot analysis; format: functional, cell-based; conditions: dose 5-20 µM
J774.A1 [7] = assay: Inhibition of NLRP3 inflammasome activation in mouse J774.A1 cells assessed as cleavage of pro-caspase 1 to p20 measured at 20 microM after […] by Western blot analysis; format: functional, cell-based; conditions: DDE = dose-dependent effect

| Structure (SMILES) | Ratio IC50 (Homo sapiens) | IC50 (Histone deacetylase 1) [nM] | IC50 (Histone deacetylase 2 [1]) [nM] | IC50 (Histone deacetylase 3 [2]) [nM] | IC50 [3] [nM] | IC50 (Histone deacetylase 2 [4]) [nM] | IC50 (Histone deacetylase 3 [5]) [nM] | Activity (J774.A1 [6]) | inhibition (J774.A1 [7]) |
| --- | --- | --- | --- | --- | --- | --- | --- | --- | --- |
| CCNNC(=O)c1ccc(CN2c3ccccc3Sc3ccccc32)cc1 | > 28 | > 5000 | > 5000 | 3960 | 175 | – | – | – | – |
| CCNNC(=O)c1ccc(CN2c3ccccc3Cc3ccccc32)cc1 | 13 | 3190 | > 5000 | 1430 | 235 | – | – | – | – |
| O=C(NO)c1ccc(CN2CCCc3ccccc32)cc1 | – | – | – | – | – | 32800 | 29500 | – | – |
| CCNNC(=O)c1csc(-c2cccnc2)n1 | – | > 5000 | 316 | > 5000 | > 5000 | – | – | – | – |
| CCNNC(=O)c1ccc(Cn2c3c(c4ccccc42)CCCC3)cc1 | > 11 | > 5000 | > 5000 | > 5000 | 455 | – | – | – | – |
| CCNNC(=O)c1ccc(CNC(=O)c2ccccc2)cc1 | 5.1 | 399 | – | – | 78 | – | – | – | – |
| CCNNC(=O)c1ccc(Cn2c3ccccc3c3cccnc32)cc1 | 77 | 2860 | 2340 | 1590 | 37 | – | – | – | – |
| CCNNC(=O)c1ccc(CN2c3ccccc3Oc3ccccc32)cc1 | > 6 | > 5000 | > 5000 | 3130 | 843 | – | – | – | – |
| CCNNC(=O)c1ccc(CN2c3ccccc3C=Cc3ccc(C)cc32)cc1 | 30 | 2270 | 4390 | 469 | 76 | – | – | – | – |
| CCCCN(Cc1ccc(C(=O)NNCC)cc1)C(=O)c1ccccc1 | 6.7 | 1270 | 187 | 446 | 189 | – | – | – | – |
| CCNNC(=O)c1ccc(CNc2cccc3cccnc23)cc1 | – | 659 | 82 | 147 | 41 | – | – | – | – |
| CCNNC(=O)c1ccc(CN2c3ccccc3CC(=O)c3ccccc32)cc1 | 37 | 3920 | > 5000 | > 5000 | 105 | – | – | – | – |
| CCNNC(=O)c1coc(-c2ccc(Br)cc2)c1 | – | > 5000 | > 5000 | > 5000 | > 5000 | – | – | – | – |
| CCNNC(=O)c1ccc(Cn2c3ccccc3c3cnccc32)cc1 | > 45 | > 5000 | 3230 | 4610 | 110 | – | – | – | – |
| CCNNC(=O)c1ccc(Cn2nnnc2-c2cccs2)cc1 | 5 | 80 | 41 | 26 | 16 | – | – | – | – |
| CCNNC(=O)c1ccc(CN2c3ccccc3C=Cc3ccc(C(F)(F)F)cc32)cc1 | > 29 | > 5000 | > 5000 | 1850 | 173 | – | – | – | – |
| CCNNC(=O)c1ccc(Cn2c(=O)n(CCc3ccccc3)c(=O)c3ccccc32)cc1 | 11 | 1690 | 1200 | 77 | 145 | – | – | – | – |
| CNS(=O)(=O)c1ccc(CCNC(=O)c2cc(Cl)ccc2OC)cc1 | – | – | – | – | – | – | – | Active | Dde |
